Reference: PubChem BioAssay (NCI)
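Test compounds were applied to cells in 96-well plates for 48 hours at 5 doses. Here, GI50 denotes the concentration required for 50% inhibition of growth. TGI is the concentration that stops growth completely.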

Tests used:
Test in all cases: DTP human tumour cell line panel, 48 h
A498 renal = tested on: A498 renal
CAKI-1 renal = tested on: CAKI-1 renal
MALME-3M melanoma = tested on: MALME-3M melanoma
PC-3 prostate = tested on: PC-3 prostate
SF-268 CNS = tested on: SF-268 CNS
SN12C renal = tested on: SN12C renal
SR leukemia = tested on: SR leukemia
TK-10 renal = tested on: TK-10 renal

SMILES	TGI (A498 renal)	TGI (CAKI-1 renal)	TGI (MALME-3M melanoma)	TGI (PC-3 prostate)	TGI (SF-268 CNS)	TGI (SN12C renal)	TGI (SR leukemia)	TGI (TK-10 renal)	GI50 (A498 renal)	GI50 (CAKI-1 renal)	GI50 (MALME-3M melanoma)	GI50 (PC-3 prostate)	GI50 (SF-268 CNS)	GI50 (SN12C renal)	GI50 (SR leukemia)	GI50 (TK-10 renal)
Cc1occc1C(=S)Nc1ccc(Cl)c(COC(C)(C)C)c1	32.3 µM	38.9 µM	31.1 µM	30.6 µM	35.9 µM	29.2 µM	41.8 µM	34.8 µM								
ClCCn1c(CCl)nc2ccc(Cl)cc21	4.8 µM	3.2 µM	1.89 µM	3.39 µM	2.95 µM	0.708 µM	4.32 µM	2.95 µM	2.05 µM	1.6 µM	0.46 µM	1.58 µM	1.22 µM	0.257 µM	0.232 µM	1.46 µM
Cc1c(C(=O)/C=C/c2csc3ccccc23)[n+](=O)c2ccccc2n1[O-]	13.8 µM	3.7 µM	8.06 µM	4.3 µM	2.78 µM	4.72 µM	8.69 µM	6.09 µM	3.38 µM	1.42 µM	2.29 µM	1.71 µM	1.44 µM	2 µM	1.79 µM	2.79 µM
COc1ccc(C(=O)/C=C/c2ccc(/C=C/c3cc(OC)c(OC)c(OC)c3)cc2)cc1	> 100 µM	> 100 µM	> 100 µM	> 100 µM	88.3 µM	> 100 µM	> 100 µM		18.6 µM	14.6 µM	13.2 µM	5.65 µM	6.08 µM	9.61 µM	1.98 µM	
CCCCCn1c(=N)n(CC(O)COc2cccc(C)c2)c2ccccc21 (stereo unspecified)	13 µM	21.2 µM	6.1 µM	16.3 µM	23.9 µM	19 µM	5.57 µM	22.4 µM	1.49 µM	6.95 µM	2.39 µM	4 µM	10.7 µM	5.41 µM	2.02 µM	10.2 µM
N#Cc1cnc2cc(OC[C@H](O)CO)c(NC(=O)CC3CSSC3)cc2c1Nc1ccc(OCc2cccc(F)c2)c(Cl)c1	2.45 µM	27.6 µM	2.06 µM	0.451 µM	1.56 µM	1.1 µM		2.13 µM	1.03 µM	10.1 µM	0.97 µM	0.162 µM	0.537 µM	0.35 µM		0.873 µM
CCN(CC)S(=O)(=O)c1ccc(OC)c(Nc2ncc(-c3ccccc3)o2)c1	> 15.5 µM	> 25 µM	> 25 µM	> 25 µM	> 25 µM	> 25 µM	> 25 µM	> 25 µM	1.24 µM	> 25 µM	> 25 µM	> 15.9 µM	> 22.3 µM	> 22.7 µM	> 14.1 µM	> 17.4 µM
Nc1ccn(Cc2ccc(C34CC5CC(CC(C5)C3)C4)c(O)c2)c(=O)n1	> 100 µM	> 100 µM	> 100 µM		> 100 µM	> 100 µM	> 100 µM	> 100 µM	59.4 µM	> 100 µM	> 100 µM		67.1 µM	> 100 µM	> 100 µM	> 100 µM
CC(C)(C)C[C@H]1NC(C(=O)NCC[C@H](O)CO)[C@H](c2cccc(Cl)c2)[C@@]12C(=O)Nc1cc(Cl)c(F)cc12 (stereo partly specified)	18.7 µM	18.1 µM	11.8 µM	34.7 µM	30.2 µM	46.8 µM	10.1 µM	39.5 µM	4.41 µM	3.84 µM	0.866 µM	14.9 µM	13.7 µM	19.8 µM	1.83 µM	19.2 µM
CN(C)/C=C/c1nnc([N+](=O)[O-])s1	67.6 µM	40.5 µM	14.6 µM	22 µM	42.1 µM	47.7 µM		58.5 µM								
CC1(C)SC2C(NC(=O)C(N)c3ccccc3)C(=O)N2C1C(=O)O (stereo unspecified)		> 100 µM		> 100 µM	> 100 µM	> 100 µM	> 100 µM	> 100 µM								
COc1ccc2nc3cc([N+](=O)[O-])ccc3c(NCCCCCN(C)C)c2c1	2.98 µM	3.04 µM	1.03 µM	1.75 µM	2.26 µM	0.631 µM	14.1 µM		1.07 µM	0.306 µM	0.233 µM		0.285 µM	0.179 µM	0.159 µM	
CC1SC(c2c(Cl)cccc2Cl)N(NC(=O)c2[nH]c3ccc(F)cc3c2-c2ccccc2)C1=O (stereo unspecified)	9.46 µM	4.85 µM	4.35 µM	4.46 µM	4.89 µM	5.86 µM		7.12 µM	2.33 µM	1.83 µM	1.43 µM	1.98 µM	1.97 µM	2.26 µM		2.56 µM
COc1ccc(-c2ccc(/C=N/n3c(COc4ccc(Cl)cc4Cl)n[nH]c3=S)o2)c([N+](=O)[O-])c1	41.5 µM	36.9 µM	45.1 µM	47.1 µM	67.1 µM	58.4 µM		49.2 µM	16.8 µM	17.3 µM	19.9 µM	19.4 µM	23.1 µM	24.2 µM		16.8 µM
O=C(CC(=O)CC(O)(C(F)(F)F)C(F)(F)F)CC(O)(C(F)(F)F)C(F)(F)F	> 10 µM	> 10 µM	> 10 µM		> 10 µM	> 10 µM		> 10 µM								
Nc1c(C(=O)Nc2cccc([N+](=O)[O-])c2)sc2nc3c(cc12)C(O)CCC3 (stereo unspecified)	> 100 µM	> 100 µM	> 100 µM		> 89.8 µM	> 100 µM	> 100 µM	> 100 µM	2.7 µM	> 100 µM	26.9 µM		9.62 µM	7.39 µM	1.96 µM	15.9 µM
CCCCOc1ccc(NC(N)=Nc2ccc(Cl)cc2)cc1	14.5 µM		8.34 µM	18.3 µM	12.9 µM	15.9 µM	47.6 µM	18 µM								
